Reference: paper PMC8834506, “Optimization of Thymidine Kinase-Based Safety Switch for Neural Cell Therapy” (Cells, 2022)
Where two headings read alike, the source gives them in different places.

Tests used:
[1] = test system: ReNcells Ubi-SR39h (proliferating); assay: ATP-based assay, EC50 in proliferating neural progenitors; assay type: cell-based; details: Homo sapiens, 96 h GCV exposure
Protocol: We then compared the ability of GCV to kill proliferating NPC that expressed the SR39h thymidine kinase under the control of the ubiquitin (ReNcells Ubi-SR39h) or the Ki67 promoter. (ReNcells Ki67-SR39h) (Figure 4). For this purpose, we first performed a dose response to GCV on undifferentiated NPC. […] We then explored the kinetic of cell death with the suicide enzyme driven either by Ki67 or ubiquitin promoter for different concentrations of GCV. The rapidity of cell death induction but not its final extent was a function of the GCV concentrations. […] This was true for a short-term treatment at 24 h and 48 h, but not at the later time points at 72 h and 96 h (Figure 4D).
Figure 4 EC50 and kinetics of GCV-induced cell death in proliferating and post-mitotic ReNcells. […] Cell viability was measured every 24 h using a bioluminescent ATP-based assay (n = 3). […] Cell viability was measured using an ATP-based assay. […]
Cell culture plate (96 wells plate Corning #3907, Corning, Lonay, Switzerland) were pre-coated with 60 μL per well of Poly-L-ornithine solution (Sigma, Merk, Eysins, Switzerland) at 37 °C for 30 min. […] For EC50 assays, the medium was changed daily for 4 days, then cell viability was assessed using an ATP-based assay. EC50 values for each construct were calculated using a four parameters equation (GraphPad, Prism8, San Diego, CA, USA). […]

[2] = assay type: in vivo, NOD/SCID mice; details: 40 mg/kg/day i.p.; weighed daily during treatment
Protocol: Given the encouraging in vitro results, we next investigated whether this newly developed safety switch system (SR39h and different nucleoside analogs) could prevent tumor formation in vivo. For this purpose, 20,000 undifferentiated Ki67-SR39h-expressing hESC were transplanted into the striatum of NOD/SCID mice. […] A group of control mice received only a NaCl solution. […] Human cytoplasmic marker (HCM) staining confirmed the human (i.e., hESC-derived) origin of these tumors. Tumors cells were predominantly Ki67 positive with a rosette organization as frequently found in tumors of the central nervous system.
Supplementary Figure S3: Mice weight
Mice were weighed daily during guanosine analogs treatment to identify differences in weight gain/loss between treated groups. No differences were observed between treatment groups.
Supplementary Figure S4: in vivo validation of suicide gene. Coronal section of NOD/SCID mice 47 days after injection of hESC expressing the SR39h thymidine kinase variant. Mice were treated for 2x5 days with the respective nucleoside analogs (see Methods). Upper lane: ACV; middle lane: PCV; lower lane: GCV. Sections were colored with cresyl violet and dark purple staining reflects a high density of nuclei. Scale bar 1000 µm. […]

[3] = test system: ReNcell wt (non-transduced proliferating ReNcells); assay: cells; assay type: cell-based; details: Homo sapiens; 96 h GCV exposure; read-out: EC50 of GCV, killing of non-transduced proliferating ReNcells
Protocol: Cells were exposed to 100 µM of the respective nucleoside for 48 h. DNA damage was monitored using γ-H2A.X marker in yellow and nuclei were counterstained with Hoechst. The white box in the first column indicates the area of the zoom for the hESC colonies.
Plates were washed twice with DMEM-F12 (Gibco, ThermoFisher; Geneva, Switzerland), then coated with Matrigel (Corning, Lonay, Switzerland) 1/100 in DMEM-F12 and incubate 2 h at 37°. Cells were detached using Accutase and seeded at 2000 cells/well in serum-free culture medium containing 10 µM of ROCK inhibitor. At 24 h, the cell culture was continued without ROCK inhibitor. […] Drugs were prepared by serial dilution (two-fold) in 100% DMSO. At 48 h after seeding, cells were exposed to antiviral drugs for 96 h. For EC50 assays, the medium was changed daily for 4 days, then cell viability was assessed using an ATP-based assay. EC50 values for each construct were calculated using a four parameters equation (GraphPad, Prism8, San Diego, CA, USA). The same procedure was used for the cell death kinetic determinations except the treatment duration. Luminescence was measured using Spectra L384/L96 (0.2 sec exposure, Molecular devices, Biberach an der Riß, Germany).

## Nc1nc(O)c2ncn(COC(CO)CO)c2n1 [GCV, ganciclovir]
[1]; 24-point dose response, n = 3, read-out: EC50 of GCV, ReNcell Ki67-SR39h (second line of the picture's table)
  EC50: 2.1 nM
[1]; undifferentiated NPC, read-out: EC50 of GCV
  EC50: ~2.1 nM
[2]
  Differences in weight among groups: no significant differences in weight
[3]
  EC50: 12000 nM
